Experiment [1] has as its system P. berghei Luciferase sporozoites in HepG2-A16-CD81EGFP cells. In words: P. berghei Luciferase liver stage assay. In kind it is cell-based. The following applies: Plasmodium berghei, 48 h after infection, bioluminescence, read-out: IC50 against sporozoite infection of liver cells (P. berghei Luciferase). How it is done: Compounds 66 and 177 were tested for activity against sporozoite infection of liver cells as well the viability of liver schizonts of the murine Plasmodium berghei species transformed with Luciferase by using an assay adapted from S. Swann et al. (2016) High-Throughput Luciferase-Based Assay for the Discovery of Therapeutics That Prevent Malaria. ACS Infectious Diseases 2: 4. 281-293 (2016).
Compounds 66 and 177 were tested for activity against sporozoite infection of liver cells of the murine Plasmodium berghei species transformed with Luciferase by using the following P. berghei Luciferase liver stage assay.
Hepatic human transformed cells (HepG2) pre-treated for 18 hours with either compound 66 or 177 were infected with freshly dissected P. berghei Luciferase sporozoites. After another 48 hours of incubation with the compound, the viability of P. berghei exoerythrocytic forms (EEF) was measured by bioluminescence.
Plasmodium berghei Luciferase sporozoites were obtained by dissection of infected A. stephensi mosquito salivary glands supplied by the New York University Insectary. Dissected salivary glands were homogenized in a glass tissue grinder and filtered twice using Steriflip Vacuum-Driven Filtration System (20 μm pore size, Millipore) and counted using a hemocytometer. The sporozoites were kept on ice until needed. […]

The test system of experiment [2] is 3D7 strain of Plasmodium falciparum. The experiment is described as follows: Potency in the 3D7 strain of Plasmodium falciparum (EC50). The format is cell-based. The following applies: Plasmodium falciparum.
The mark [3] stands for this setting: 3D7, read-out: 3D7 Mean EC50 (μM).

Read-outs that look alike come from different tables or passages of the source.

One may read the IC50 as the concentration that gives 50% inhibition. One may read the EC50 as the midpoint of the concentration-response curve.

`O=C1c2c3c(nc4ccccc24)CCN(Cc2ccccc2)C3N1c1ccc(F)c(F)c1` (centres unmarked) [Compound 177, 3-Benzyl-2-(3,4-difluorophenyl)-2a,3,4,5-tetrahydrobenzo[b]pyrrolo[4,3,2-de][1,6]naphthyridin-1(2H)-one]: the 50% inhibitory concentration (IC50) in experiment [1] is more than 12500 nM. Moreover, the half-maximal effective concentration (EC50) in experiment [2] (setting [3]) came to 0.00328 ± 0.000533 µM.

Regarding `O=C(Nc1ccc(F)c(F)c1)c1c2c(nc3ccccc13)CCN(Cc1ccccc1)C2` [Compound 66, 2-Benzyl-N-(3,4-difluorophenyl)-1,2,3,4-tetrahydrobenzo[b][1,6]naphthyridine-10-carboxamide], in experiment [1], the IC50 is more than 50000 nM. In addition, the half-maximal effective concentration (EC50) in experiment [2] (3D7, read-out: 3D7 EC50) is 0.0204 µM; in experiment [2] (setting [3]), more than 3.49 µM.

(Values after patent US12370183B2, “Compositions and methods for treating malaria” (Rutgers, The State University of New Jersey, priority 2020, dated 2025).)
